Measurements published in patent US12594276B2, “Inhibitors of human immunodeficiency virus replication” (ViiV Healthcare UK (No.5) Limited, priority 2024, dated 2026).

Legend:
[1] = test system: recombinant NL4-3 virus (nef section replaced with Renilla luciferase gene) in MT-2 cells; assay: HIV cell culture assay (antiviral activity, luciferase readout); format: cell-based; conditions: Renilla, NL43, MT-2 cells infected for 4-5 days with recombinant NL4-3 Renilla luciferase virus
Outline: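 MT-2 cells were infected for 4-5 days with reporter virus made by transfecting the recombinant NL4-3 proviral clone into 293T cells, in the presence of serial compound dilutions. Luciferase activity was read with a live-cell substrate. EC50 came from the exponential median effect equation, (Fa)=1/[1+(ED50/drug conc.)m].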

[2] = Compound cytotoxicity, XTT-based colorimetric assay; format: cell-based; conditions: human; uninfected MT2 cells, day 4, XTT; read-out: CC50
Outline: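 CC50 derived from XTT colorimetric signal measured on day 4 in MT2 cells that were not infected. All other steps followed the antiviral assay protocol.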

In the case of `CO[C@@H](C)CNC(=O)Cn1nc(NS(C)(=O)=O)c2c(Cl)ccc(-n3c([C@H](Cc4cc(F)cc(F)c4)NC(=O)Cn4nc(C5CC5)c5c4C[C@@H]4C[C@H]54)nc4nc(C5CCC(F)(F)CC5)cc(C)c4c3=O)c21` (atropisomer, axis not shown; (P)) [Example 395, N-[(1S)-1-[(3P)-3-[4-chloro-3-methanesulfonamido-1-({[(2S)-2-methoxypropyl]carbamoyl}methyl)-1H-indazol-7-yl]-7-(4,4-difluorocyclohexyl)-5-methyl-4-oxo-3H,4H-pyrido[2,3-d]pyrimidin-2-yl]-2-(3,5-difluorophenyl)ethyl]-2-[(2S,4S)-9-cyclopropyl-7,8-diazatricyclo[4.3.0.0^2,^4]nona-1(6),8-dien-7-yl]acetamide], the EC50 [1] is reported as 0.034 nM and the CC50 at 4 days [2] is reported as > 20 nM.
For `Cc1cc(C2CCC(F)(F)CC2)nc2nc([C@H](Cc3cc(F)cc(F)c3)NC(=O)Cn3nc(C4CC4)c4c3C[C@@H]3C[C@H]43)n(-c3ccc(Cl)c4c(NS(C)(=O)=O)nn(CC(=O)N5CC(C)(C)OC(C)(C)C5)c34)c(=O)c12` (atropisomer, axis not shown; (P)) [Example 396, N-[(1S)-1-[(3P)-3-{4-chloro-3-methanesulfonamido-1-[2-oxo-2-(2,2,6,6-tetramethylmorpholin-4-yl)ethyl]-1H-indazol-7-yl}-7-(4,4-difluorocyclohexyl)-5-methyl-4-oxo-3H,4H-pyrido[2,3-d]pyrimidin-2-yl]-2-(3,5-difluorophenyl)ethyl]-2-[(2S,4S)-9-cyclopropyl-7,8-diazatricyclo[4.3.0.0^2,^4]nona-1(6),8-dien-7-yl]acetamide], the EC50 [1] was 0.02 nM and the CC50 at 4 days [2] was > 20 nM.
With `COCCN(CCOC)C(=O)Cn1nc(NS(C)(=O)=O)c2c(Cl)ccc(-n3c([C@H](Cc4cc(F)cc(F)c4)NC(=O)Cn4nc(C(F)F)c5c4C(F)(F)[C@@H]4C[C@H]54)nc4nc(C5CCC(F)(F)CC5)cc(C)c4c3=O)c21` (atropisomer, axis not shown; (P)) [Example 401, 2-[(6P)-4-chloro-7-[7-(4,4-difluorocyclohexyl)-2-[(1S)-1-{2-[(2S,4R)-9-(difluoromethyl)-5,5-difluoro-7,8-diazatricyclo[4.3.0.02, 4]nona-1(6),8-dien-7-yl]acetamido}-2-(3,5-difluorophenyl)ethyl]-5-methyl-4-oxo-3H,4H-pyrido[2,3-d]pyrimidin-3-yl]-3-methanesulfonamido-1H-indazol-1-yl]-N,N-bis(2-methoxyethyl)acetamide] the EC50 [1] was 0.012 nM and the CC50 at 4 days [2] was > 20 nM.
For `Cc1cc(C2CCC(F)(F)CC2)nc2nc([C@H](Cc3cc(F)cc(F)c3)NC(=O)Cn3nc(C(F)F)c4c3C(F)(F)[C@@H]3C[C@H]43)n(-c3ccc(Cl)c4c(NS(C)(=O)=O)nn(CC(=O)N(C)[C@@H]5CCOC5)c34)c(=O)c12` (atropisomer, axis not shown; (P)) [Example 405, N-[(1S)-1-[(3P)-3-[4-chloro-3-methanesulfonamido-1-({methyl[(3R)-oxolan-3-yl]carbamoyl}methyl)-1H-indazol-7-yl]-7-(4,4-difluorocyclohexyl)-5-methyl-4-oxo-3H,4H-pyrido[2,3-d]pyrimidin-2-yl]-2-(3,5-difluorophenyl)ethyl]-2-[(2S,4R)-9-(difluoromethyl)-5,5-difluoro-7,8-diazatricyclo[4.3.0.0^2,^4]nona-1(6),8-dien-7-yl]acetamide], the EC50 [1] was 0.034 nM and the CC50 at 4 days [2] was > 20 nM.
With `Cc1cc(C2CCC(F)(F)CC2)nc2nc([C@H](Cc3cc(F)cc(F)c3)NC(=O)Cn3nc(C(F)F)c4c3C(F)(F)[C@@H]3C[C@H]43)n(-c3ccc(Cl)c4c(NS(C)(=O)=O)nn(CC(=O)N5C[C@H]6C[C@H]6C5)c34)c(=O)c12` (atropisomer, axis not shown; (P)) [Example 409, N-[(1S)-1-[(3P)-3-(1-{2-[(1R,5S)-3-azabicyclo[3.1.0]hexan-3-yl]-2-oxoethyl}-4-chloro-3-methanesulfonamido-1H-indazol-7-yl)-7-(4,4-difluorocyclohexyl)-5-methyl-4-oxo-3H,4H-pyrido[2,3-d]pyrimidin-2-yl]-2-(3,5-difluorophenyl)ethyl]-2-[(2S,4R)-9-(difluoromethyl)-5,5-difluoro-7,8-diazatricyclo[4.3.0.0^2,^4]nona-1(6),8-dien-7-yl]acetamide] the EC50 [1] was 0.014 nM and the CC50 at 4 days [2] was > 20 nM.
For `COCCNc1cc(C2CCC(F)(F)CC2)nc2nc([C@H](Cc3cc(F)cc(F)c3)NC(=O)Cn3nc(C(F)F)c4c3C(F)(F)[C@@H]3C[C@H]43)n(-c3ccc(Cl)c4c(NS(C)(=O)=O)nn(CCN5CCC(F)(F)CC5)c34)c(=O)c12` (atropisomer, axis not shown; (P)) [Example 413, N-[(1S)-1-[(3P)-3-{4-chloro-1-[2-(4,4-difluoropiperidin-1-yl)ethyl]-3-methanesulfonamido-1H-indazol-7-yl}-7-(4,4-difluorocyclohexyl)-5-[(2-methoxyethyl)amino]-4-oxo-3H,4H-pyrido[2,3-d]pyrimidin-2-yl]-2-(3,5-difluorophenyl)ethyl]-2-[(2S,4R)-9-(difluoromethyl)-5,5-difluoro-7,8-diazatricyclo[4.3.0.0^2,^4]nona-1(6),8-dien-7-yl]acetamide], the EC50 [1] was 0.013 nM and the CC50 at 4 days [2] was > 20 nM.
With `COCCNc1cc(C2CCC(F)(F)CC2)nc2nc([C@H](Cc3cc(F)cc(F)c3)NC(=O)Cn3nc(C(F)F)c4c3C(F)(F)[C@@H]3C[C@H]43)n(-c3ccc(Cl)c4c(NS(C)(=O)=O)nn(CCN5C[C@H](F)C[C@H](F)C5)c34)c(=O)c12` (atropisomer, axis not shown; (P)) [Example 414, N-[(1S)-1-[(3P)-3-(4-chloro-1-{2-[(3R,5S)-3,5-difluoropiperidin-1-yl]ethyl}-3-methanesulfonamido-1H-indazol-7-yl)-7-(4,4-difluorocyclohexyl)-5-[(2-methoxyethyl)amino]-4-oxo-3H,4H-pyrido[2,3-d]pyrimidin-2-yl]-2-(3,5-difluorophenyl)ethyl]-2-[(2S,4R)-9-(difluoromethyl)-5,5-difluoro-7,8-diazatricyclo[4.3.0.0^2,^4]nona-1(6),8-dien-7-yl]acetamide] the EC50 [1] was 0.01 nM and the CC50 at 4 days [2] was > 20 nM.
With `COCCNc1cc(C2CCC(F)(F)CC2)nc2nc([C@H](Cc3cc(F)cc(F)c3)NC(=O)Cn3nc(C(F)F)c4c3C(F)(F)[C@@H]3C[C@H]43)n(-c3ccc(Cl)c4c(NS(C)(=O)=O)nn(CCN5CCC(F)CC5)c34)c(=O)c12` (atropisomer, axis not shown; (P)) [Example 415, N-[(1S)-1-[(3P)-3-{4-chloro-1-[2-(4-fluoropiperidin-1-yl)ethyl]-3-methanesulfonamido-1H-indazol-7-yl}-7-(4,4-difluorocyclohexyl)-5-[(2-methoxyethyl)amino]-4-oxo-3H,4H-pyrido[2,3-d]pyrimidin-2-yl]-2-(3,5-difluorophenyl)ethyl]-2-[(2S,4R)-9-(difluoromethyl)-5,5-difluoro-7,8-diazatricyclo[4.3.0.0^2,^4]nona-1(6),8-dien-7-yl]acetamide] the EC50 [1] was 0.013 nM and the CC50 at 4 days [2] was > 20 nM.
With `COCCNc1cc(C2CCC(F)(F)CC2)nc2nc([C@H](Cc3cc(F)cc(F)c3)NC(=O)Cn3nc(C(F)F)c4c3C(F)(F)[C@@H]3C[C@H]43)n(-c3ccc(Cl)c4c(NS(C)(=O)=O)nn(CCN5CCCC(F)(F)C5)c34)c(=O)c12` (atropisomer, axis not shown; (P)) [Example 416, N-[(1S)-1-[(3P)-3-{4-chloro-1-[2-(3,3-difluoropiperidin-1-yl)ethyl]-3-methanesulfonamido-1H-indazol-7-yl}-7-(4,4-difluorocyclohexyl)-5-[(2-methoxyethyl)amino]-4-oxo-3H,4H-pyrido[2,3-d]pyrimidin-2-yl]-2-(3,5-difluorophenyl)ethyl]-2-[(2S,4R)-9-(difluoromethyl)-5,5-difluoro-7,8-diazatricyclo[4.3.0.0^2,^4]nona-1(6),8-dien-7-yl]acetamide] the EC50 [1] was 0.012 nM and the CC50 at 4 days [2] was > 20 nM.
With `COCCNc1cc(C2CCC(F)(F)CC2)nc2nc([C@H](Cc3cc(F)cc(F)c3)NC(=O)Cn3nc(C(F)F)c4c3C(F)(F)[C@@H]3C[C@H]43)n(-c3ccc(Cl)c4c(NS(C)(=O)=O)nn(CCN5C[C@@H](F)[C@@H](F)C5)c34)c(=O)c12` (atropisomer, axis not shown; (P)) [Example 417, N-[(1S)-1-[(3P)-3-(4-chloro-1-{2-[(3R,4S)-3,4-difluoropyrrolidin-1-yl]ethyl}-3-methanesulfonamido-1H-indazol-7-yl)-7-(4,4-difluorocyclohexyl)-5-[(2-methoxyethyl)amino]-4-oxo-3H,4H-pyrido[2,3-d]pyrimidin-2-yl]-2-(3,5-difluorophenyl)ethyl]-2-[(2S,4R)-9-(difluoromethyl)-5,5-difluoro-7,8-diazatricyclo[4.3.0.0^2,^4]nona-1(6),8-dien-7-yl]acetamide] the EC50 [1] was 0.007 nM and the CC50 at 4 days [2] was > 20 nM.
For `COCCNc1cc(C2CCC(F)(F)CC2)nc2nc([C@H](Cc3cc(F)cc(F)c3)NC(=O)Cn3nc(C(F)F)c4c3C(F)(F)[C@@H]3C[C@H]43)n(-c3ccc(Cl)c4c(NS(C)(=O)=O)nn(CCN5C[C@@H](C)O[C@@H](C)C5)c34)c(=O)c12` (atropisomer, axis not shown; (P)) [Example 418, N-[(1S)-1-[(3P)-3-(4-chloro-1-{2-[(2R,6S)-2,6-dimethylmorpholin-4-yl]ethyl}-3-methanesulfonamido-1H-indazol-7-yl)-7-(4,4-difluorocyclohexyl)-5-[(2-methoxyethyl)amino]-4-oxo-3H,4H-pyrido[2,3-d]pyrimidin-2-yl]-2-(3,5-difluorophenyl)ethyl]-2-[(2S,4R)-9-(difluoromethyl)-5,5-difluoro-7,8-diazatricyclo[4.3.0.0^2,^4]nona-1(6),8-dien-7-yl]acetamide], the EC50 [1] was 0.019 nM and the CC50 at 4 days [2] was > 20 nM.
